Test results reported in patent publication US20140086977A1, “TIGHT JUNCTIONS MODULATORS” (THE UNIVERSITY OF MANCHESTER, priority 2011, published 2014).
Entries after “also recorded” stand apart in the source; their conditions may differ.

What was measured:
[1] = tested on: Normal human epidermal keratinocytes (NHEK); experiment: TEER in NHEK treated with plant polyphenols; type: cell-based; conditions: for Effect on TEER at day four vs untreated control: 100 μM myricetin or Kaempferol, quercetin concentration not stated, Mann Whitney U test
Protocol: Normal human epidermal keratinocytes (NHEK) were purchased from Promocell (Heidelberg, Germany) and grown on Thincerts™ in proprietary medium containing 0.06 mM calcium chloride. ‘Thincerts’ are small chambers containing a filter on which the cells are grown. The Thincert™ is housed within a conventional 12 well tissue culture plate. This arrangement allows treatment of the cells from either the basal or apical side.
When the cells were confluent, the medium was replaced with new medium but containing 1.8 mM calcium chloride. This induces tight junction formation in NHEK. In experiments where plant polyphenols were tested, a known volume of the plant polyphenol (dissolved in vehicle at a known concentration) was added to both apical and basal chambers of the Thincert™ at the same time as the medium was replaced. In this experiment the plant polyphenols quercetin, Myricetin and Kaempferol were tested.
Tight junctions form over 4 days and this was monitored by measuring the transepithelial electrical resistance (TEER) using an EVOM (world precision instruments). TEER was measured every 24 hours post addition of the test polyphenols and the TEER of control untreated cell monolayers was compared to that of treated cell monolayers.
The methodology set out in Example 6 was repeated, using quercetin at different concentrations. The results are shown in FIG. 8 in which the first bar represents the results for control—untreated cells, the second bar represents the results for cells treated with 100 μM quercetin and the third bar represents the results for cells treated with 10 μM quercetin (see key below). The y-axis represents TEER at 4 days (Ohms.cm^2).

[2] = tested on: claudins 1 and 4, occludin and ZO-1 mRNA; experiment: Real-time PCR of TJ gene message levels in NHEK; type: cell-based, human; conditions: 25 ug/ml, 48 hours, vs non-treated keratinocytes
Protocol: Normal primary human keratinocytes (NHEK) were grown in proprietary medium containing 0.6 mM calcium chloride. When the cells reached confluence they were placed in medium containing […] calcium chloride (calcium switch) and 25 ug/ml cis-UCA was added. Cells were incubated for 48 hours and message levels for the TJ genes claudins 1 and 4, occludin and ZO-1 were quantified using real-time PCR using non-treated keratinocytes as a control (FIG. 3).

[3] = tested on: Normal primary human keratinocytes (NHEK); experiment: Transepithelial electrical resistance (TEER) in NHEK after calcium switch, UCA isomers; type: cell-based; conditions: for Effect on TEER: differentiated NHEK vs untreated cells
From the text: Transepithelial electrical resistance (TEER) measurements are used in epithelial biology as a marker of TJ integrity. Electrical resistance is a measure of how easily ions can pass through a particular transport route. The higher the resistance the harder it is for ions to pass. Whilst the TEER of a cell monolayer is a function of both transcellular and paracellular transport routes, the value of TEER is, however, dominated by the contribution from the paracellular route. TEER of monolayers can be measured using an Epithelial Voltmeter (for example EVOM from WPI Ltd). This instrument passes a current across a monolayer of cells and calculates the resistance according to Ohm's law (V=IR, where V is potential difference, I is current and R is resistance). Therefore increased TEER means […] TJ function. Preferably TEER measurements are carried out at room temperature.
Normal primary human keratinocytes (NHEK) were grown on Thincerts™ in medium containing 0.6 mM calcium until the cells were confluent. TJ formation was the induced by calcium switch and 25 ug/ml cis-UCA was added to the cells which were incubated for 96 hours and the transepithelial electrical resistance (TEER) measured every 24 hours post calcium switch.
(§1) Exposure of human skin to solar simulated ultraviolet radiation (UVR) transiently impairs skin barrier function (SBF) which recovers over a period of 2-14 days. […] Trans-urocanic acid (trans-UCA) is a major epidermal chromophore located in the stratum corneum and exposure of human skin to UVR photoisomerises trans-UCA to cis-UCA. In a previous Affymetrix study, the Cld-1 encoding gene, CLDN1, was listed as one of several markers induced by cis- but not trans-UCA, in normal human epidermal keratinocytes (NHEK) (Kaneko et al, J Immunol 2008, 181, 217-24). We therefore examined UCA isomer-dependent changes in Cld-1 protein expression (assessed by immunoblotting) and TJ function (assessed as transepithelial electrical resistance; TEER) in differentiated NHEK in vitro.

claudin 1 = experiment: Claudin 1 protein levels in NHEK by immunoblot; type: cell-based, human; conditions: for Effect on claudin 1 protein levels: 24-96 hours post treatment, immunoblot
Protocol: Normal primary human keratinocytes (NHEK) were grown in proprietary medium containing 0.6 mM calcium chloride. When the cells reached confluence they were placed in medium containing 1.8 mM calcium chloride (calcium switch) and either cis-UCA, irradiated trans-UCA, unirradiated trans-UCA or control medium. Cells were the incubated for 96 hours during which time TJs form. At 24, 48, 72 or 96 hours post treatment, cells were harvested and claudin 1 levels analysed by immunoblot.
NHEK (growing as described above) were treated with different concentrations of cis-UCA for 48 hours after which claudin 1 levels were examined using immunoblotting.
as §1

SMILES: O=c1c(O)c(-c2ccc(O)cc2)oc2cc(O)cc(O)c12 [Kaempferol]
- Time to barrier formation ([1]; 100 μM): reduces
- Effect on TEER at day four vs untreated control [1]: increases

SMILES: O=C(O)/C=C\c1c[nH]cn1 [cis-UCA, cis-urocanic acid]
- Levels of mRNA for claudins 1, 4, occludin and ZO-1 [2]: increases
- TEER higher than in untreated cells ([3]; 25 ug/ml cis-UCA, up to 96 hours post calcium switch): approximately 150 ohms.cm^2
- Effect on TEER [3]: higher
- TEER higher than in untreated cells ([3]; differentiated NHEK, n=6, p=0.004): ~150 ohms/cm^2
- Effect on claudin 1 protein levels (claudin 1): time dependent increase
- Effect on claudin 1 protein levels (claudin 1; listed as Cis-UCA): time and concentration dependent increase
- Dose dependence of claudin 1 protein levels (claudin 1; 48 hours, greatest at 25 ug/ml): dose dependent increase
- Increase in Cld-1 protein (claudin 1; maximal 48 h post-treatment with 25 μg/ml, n=4, p=0.02): ~3 fold

SMILES: O=C(O)/C=C/c1cnc[nH]1 [trans-UCA, trans-urocanic acid, reference compound]
- Effect on TEER [3]: no effect
- Effect on claudin 1 protein levels (claudin 1): no effect
- Effect on claudin 1 protein levels (claudin 1; listed as unirradiated trans-UCA): does not; also recorded: no effect

SMILES: O=c1c(O)c(-c2ccc(O)c(O)c2)oc2cc(O)cc(O)c12 [quercetin]
- Effect on TEER at day four vs untreated control [1]: significantly increase
- Dose dependence of TEER at 4 days ([1]; 100 μM vs 10 μM quercetin): higher quantities of quercetin have a more beneficial effect

SMILES: O=c1c(O)c(-c2cc(O)c(O)c(O)c2)oc2cc(O)cc(O)c12 [Myricetin]
- Effect on TEER at day four vs untreated control [1]: significantly increase
